The target of test [1] is T1, RORγ-LBD (Homo sapiens, UniProt P51449).
T1 construct: made in house; host or cells: SF9 cells (baculovirus); used as diluted lysate
T1 sequence (P51449 269-508 limits assumed): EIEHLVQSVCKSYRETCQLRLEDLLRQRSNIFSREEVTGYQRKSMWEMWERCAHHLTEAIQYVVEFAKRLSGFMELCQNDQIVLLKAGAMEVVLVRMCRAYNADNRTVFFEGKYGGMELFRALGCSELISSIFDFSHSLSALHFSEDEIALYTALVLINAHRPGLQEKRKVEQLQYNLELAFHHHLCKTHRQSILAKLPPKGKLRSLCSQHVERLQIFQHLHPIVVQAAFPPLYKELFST
Kind of test: RORγ-Ligand Binding Domain (LBD) TR-FRET Assay.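 As to TR-FRET Assay Max Response: 665/615 nm signal ratio set to 100 without ursolic acid or test compound.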 The format is biochemical. Particulars: for TR-FRET Assay Max Response: maximum response. Summed up: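 TR-FRET read-out using a biotin-tagged SRC1 coactivator LXXLL peptide (200 nM final), with the antagonist ursolic acid present at 2 μM final. Receptor is His-tagged LBD expressed in SF9 cells, ~3 nM final in pH 7.0 Tris/KCl/EDTA/DTT/BSA buffer; compounds in 1% DMSO final.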
A general note: TR-FRET usually uses a lanthanide donor and a delayed reading to cut background.

Test [2] addresses T2, Gal4-RORγ-LBD (Homo sapiens, UniProt P51449).
T2 construct: expressed in transfected cells
T2 sequence (P51449 269-508 limits assumed): T1 sequence (P51449 269-508 limits assumed)
The experiment in a line: Gal4-RORγ Luciferase Reporter Assay in HEK-293T Cells. Type of test: cell-based. The settings on record: HEK-293 cells; for Gal4-RORγ Assay Max Response: maximum response. The method in brief: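 Max Response was taken as the upper plateau of a 4-parameter logistic fit of luciferase signal, normalized to 100 for wells without ursolic acid or compound. Transiently Gal4-RORγ-LBD/Gal4-luc transfected HEK-293 cells carrying […] ursolic acid were incubated with test compounds (0.2% DMSO) overnight at 37 °C and read with One-Glo.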
(Reporter assays use an easily measured gene product as a stand-in for the process of interest.)

Where [3] appears, read: luciferase reporter, in presence of ursolic acid.
The mark [4] stands for this setting: luciferase reporter, with ursolic acid.

Regarding `CCOC(=O)C(C)(C)CC1CC(S(=O)(=O)c2ccc(F)c(OC)c2)c2cc(/C=C(\C)c3c(F)cccc3Cl)ccc2O1` (stereo not drawn) [Example 186J, ethyl (E)-3-(6-(2-(2-chloro-6-fluorophenyl)prop-1-en-1-yl)-4-44-fluoro-3-methoxyphenyl)-sulfonyl)chroman-2-yl)-2,2-dimethylpropanoate], in test [1] (RORγ-LBD TR-FRET assay), the EC50 was less than 500 nM and the “TR-FRET Assay Max Response” value is given as “** (a value in the range of greater than 90 to 150)”. In test [2] (setting [3]), the EC50 lay in the range of 500 to 5000 nM and the “Gal4-RORγ Assay Max Response” value is “** (a value in the range of greater than 90 to 150)”.

Take `O=C(O)CC[C@H]1CN(S(=O)(=O)c2cccc(OC(F)F)c2)c2cc(/C=C/c3ccccn3)ccc2O1` [Example 89C, (S,E)-3-(4-((3-(difluoromethoxy)-phenyl)sulfonyl)-6-(2-(pyridin-2-yl)vinyl)-3,4-dihydro-2H-benzo[b][1,4]oxazin-2-yl)propanoic acid]: the EC50 is 500 to 5000 nM in test [1] (RORγ-LBD TR-FRET) and 5000 to 10000 nM in test [2] (setting [4]).

As for `CCOc1nn(CC)cc1S(=O)(=O)N1C[C@H](CCC(=O)OC)Oc2ccc(/C=C/c3c(C)cccc3F)cc21` [Example 89AH, (S,E)-methyl 3-(4-((3-ethoxy-1-ethyl-1H-pyrazol-4-yl)sulfonyl)-6-(2-fluoro-6-methylstyryl)-3,4-dihydro-2H-benzo[b][1,4]-oxazin-2-yl)propanoate], the EC50 in test [1] (RORγ-LBD TR-FRET) and in test [2] (setting [4]) was less than 500 nM in each case.

For `C/C(=C\c1ccc2c(c1)N(S(=O)(=O)c1cc(C(F)(F)F)cnc1OCCO)C[C@H](CCC(=O)O)O2)c1c(F)cccc1Cl` [Example 71, (S,E)-3-(6-(2-(2-Chloro-6-fluorophenyl)prop-1-en-1-yl)-4-((2-(2-hydroxyethoxy)-5-(trifluoromethyl)pyridin-3-yl)sulfonyl)-3,4-dihydro-2H-benzo[b][1,4]oxazin-2-yl)propanoic acid], the half-maximal effective concentration (EC50) in test [1] (RORγ-LBD TR-FRET) and in test [2] (setting [4]) was less than 500 nM in each case.

As for `CCOc1nn(CC)cc1S(=O)(=O)N1C[C@H](CCC(=O)O)Oc2ccc(/C=C/c3ccc(C#N)cc3)cc21` [Example 89DC, (S,E)-3-(6-(4-cyanostyryl)-4-((3-ethoxy-1-ethyl-1H-pyrazol-4-yl)sulfonyl)-3,4-dihydro-2H-benzo[b][1,4]oxazin-2-yl)propanoic acid], the EC50 in test [1] (RORγ-LBD TR-FRET) and in test [2] (setting [4]) was more than 10000 nM each time.

As to `C/C(=C\c1ccc2c(c1)N(S(=O)(=O)c1cccc(C(F)(F)F)c1)CC(C(=O)O)C2)c1c(F)cccc1Cl` (stereo not drawn), the EC50 was less than 500 nM in test [1] (with 2 μM ursolic acid (RORγ antagonist), highest test concentration 10 μM) and 500 to 5000 nM in test [2] (ursolic acid present, luciferase readout).

`CCOc1nn(CC)cc1S(=O)(=O)N1C[C@H](CCC(=O)OC)Oc2ccc(/C=C/c3ccccc3OC(F)(F)F)cc21` [Example 89BB, (S,E)-methyl 3-(4-((3-ethoxy-1-ethyl-1H-pyrazol-4-yl)sulfonyl)-6-(2-(trifluoromethoxy)styryl)-3,4-dihydro-2H-benzo[b][1,4]-oxazin-2-yl)propanoate]: the figures for the 50% effective concentration (EC50) in test [1] (RORγ-LBD TR-FRET) and in test [2] (setting [4]) were less than 500 nM and 500 to 5000 nM, respectively.

Turning to `O=C(O)CC[C@H]1CN(S(=O)(=O)c2cccc(C(F)(F)F)c2)c2cc(C=C3CCC(O)CC3)ccc2O1` (stereo partly drawn) [Example 94], the EC50 in test [1] (RORγ-LBD TR-FRET) is less than 500 nM; in test [2] (setting [4]), 500 to 5000 nM.

For the compound `O=C(O)CC[C@H]1CN(S(=O)(=O)c2cc(C(F)(F)F)cnc2OCCO)c2cc(C=C3CCC(F)(F)CC3)ccc2O1` [Example 95M, (S)-3-(6-((4,4-difluorocyclohexylidene)methyl)-4-((2-(2-hydroxyethoxy)-5-(trifluoromethyl)pyridin-3-yl)sulfonyl)-3,4-dihydro-2H-benzo[b][1,4]oxazin-2-yl)propanoic acid], the 50% effective concentration (EC50) in test [1] (RORγ-LBD TR-FRET) was less than 500 nM; in test [2] (setting [4]), 500 to 5000 nM.

Regarding `O=C(O)CC[C@H]1CN(S(=O)(=O)c2cccc(C(F)(F)F)c2)c2cc(/C=C3\CC4CCC3C4)ccc2O1` (stereo partly drawn) [Example 95S, 3-((2S)-6-((E)-bicyclo[2.2.1]heptan-2-ylidenemethyl)-4-((3-(trifluoromethyl)phenyl)sulfonyl)-3,4-dihydro-2H-benzo[b][1,4]oxazin-2-yl)propanoic acid], the EC50 in test [1] (RORγ-LBD TR-FRET) and in test [2] (setting [4]) was less than 500 nM throughout.

As for `COC(=O)CC[C@H]1CN(S(=O)(=O)c2cccc(OC(F)F)c2)c2cc(/C=C/c3ccccc3C(F)(F)F)ccc2O1` [Example 89AP, (S,E)-methyl 3-(4-((3-(difluoromethoxy)phenyl)sulfonyl)-6-(2-(trifluoromethyl)styryl)-3,4-dihydro-2H-benzo[b][1,4]-oxazin-2-yl)propanoate], the EC50 is less than 500 nM in test [1] (RORγ-LBD TR-FRET) and 500 to 5000 nM in test [2] (setting [4]).

In the case of `CCOc1nn(CC)cc1S(=O)(=O)N1C[C@H](CCC(=O)O)Oc2ccc(/C=C/c3nccnc3Cl)cc21` [Example 89M, (S,E)-3-(6-(2-(3-chloropyrazin-2-yl)vinyl)-4-((3-ethoxy-1-ethyl-1H-pyrazol-4-yl)sulfonyl)-3,4-dihydro-2H-benzo[b][1,4]oxazin-2-yl)propanoic acid], the EC50 in test [1] (RORγ-LBD TR-FRET) and in test [2] (setting [4]) was more than 10000 nM throughout.

Turning to `C/C(=C\c1ccc2c(c1)N(S(=O)(=O)c1cccc(C(F)(F)F)c1)C[C@H](CCNS(C)(=O)=O)O2)c1c(F)cccc1Cl` [Example 114, (S,E)-N-(2-(6-(2-(2-Chloro-6-fluorophenyl)prop-1-en-1-yl)-4-((3-(trifluoromethyl)phenyl)sulfonyl)-3,4-dihydro-2H-benzo[b][1,4]oxazin-2-yl)ethyl)methanesulfonamide], in test [1] (RORγ-LBD TR-FRET assay), the EC50 was less than 500 nM and the “TR-FRET Assay Max Response” value is reported as “*** (a value in the range of greater than 150 to 200)”. Also, in test [2] (setting [3]), the EC50 is less than 500 nM and the “Gal4-RORγ Assay Max Response” value is recorded as “** (a value in the range of greater than 90 to 150)”.

Consider `C/C(=C\c1ccc2c(c1)N(S(=O)(=O)c1cccc(C(F)(F)F)c1)C[C@H](N)C2)c1c(F)cccc1Cl` [Example 164, (R,E)-7-(2-(2-Chloro-6-fluorophenyl)prop-1-en-1-yl)-1-((3-(trifluoromethyl)phenyl)sulfonyl)-1,2,3,4-tetrahydroquinolin-3-amine], for which the EC50 in test [1] (RORγ-LBD TR-FRET assay) was less than 500 nM; in test [2] (setting [3]), 500 to 5000 nM.

On to `CCc1ccccc1/C=C/c1ccc2c(c1)N(S(=O)(=O)c1cccc(OC(F)F)c1)C[C@H](CCC(=O)O)O2` [Example 89AW, (S,E)-3-(4-((3-(difluoromethoxy)phenyl)sulfonyl)-6-(2-ethylstyryl)-3,4-dihydro-2H-benzo[b][1,4]oxazin-2-yl)propanoic acid], for which the figures for the EC50 in test [1] (RORγ-LBD TR-FRET) and in test [2] (setting [4]) were less than 500 nM and 500 to 5000 nM, respectively.

With `COc1cc(S(=O)(=O)N2C[C@H](CCNC(C)=O)Oc3ccc(/C=C(\C)c4c(F)cccc4Cl)cc32)ccc1F` [Example 116B, (S,E)-N-(2-(6-(2-(2-chloro-6-fluorophenyl)prop-1-en-1-yl)-4-((4-fluoro-3-methoxyphenyl)-sulfonyl)-3,4-dihydro-2H-benzo[b][1,4]oxazin-2-yl)ethyl)acetamide], in test [1] (RORγ-LBD TR-FRET assay), the EC50 was less than 500 nM and the “TR-FRET Assay Max Response” value is “*** (a value in the range of greater than 150 to 200)”. Moreover, in test [2] (setting [3]), the EC50 was less than 500 nM and the “Gal4-RORγ Assay Max Response” value is on record as “* (a value in the range of 30 to 90)”.

Take `COc1cc(S(=O)(=O)N2c3cc(OCc4c(F)cccc4Cl)ccc3C=C(CO)[C@H]2C)ccc1F` [Example 138, (R)-(7-((2-Chloro-6-fluorobenzyl)oxy)-1-((4-fluoro-3-methoxyphenyl)sulfonyl)-2-methyl-1,2-dihydroquinolin-3-yl)methanol]: in test [1] (RORγ-LBD TR-FRET assay), the EC50 was less than 500 nM and the “TR-FRET Assay Max Response” value is reported as “** (a value in the range of greater than 90 to 150)”. Moreover, in test [2] (setting [3]), the EC50 was less than 500 nM and the “Gal4-RORγ Assay Max Response” value is reported as “*** (a value in the range of greater than 150 to 200)”.

Take `CCOc1ncc(Cl)cc1S(=O)(=O)N1C[C@H](CCC(=O)OC)Oc2ccc(/C=C/c3c(F)cccc3Cl)cc21` [Example 89CW, methyl (S,E)-3-(4-((5-chloro-2-ethoxypyridin-3-yl)sulfonyl)-6-(2-chloro-6-fluorostyryl)-3,4-dihydro-2H-benzo[b][1,4]oxazin-2-yl)propanoate]: the EC50 is less than 500 nM in test [1] (RORγ-LBD TR-FRET) and 500 to 5000 nM in test [2] (setting [4]).

As for `CC(F)(F)c1cccc(S(=O)(=O)N2C[C@H](CCC(=O)O)Oc3ccc(/C=C/c4c(Cl)cccc4C(F)(F)F)cc32)c1` [Example 84, (S,E)-3-(6-(2-Chloro-6-(trifluoromethyl)styryl)-4-((3-(1,1-difluoroethyl)phenyl)sulfonyl)-3,4-dihydro-2H-benzo[b][1,4]oxazin-2-yl)propanoic acid], the EC50 in test [1] (RORγ-LBD TR-FRET) and in test [2] (setting [4]) was less than 500 nM throughout.

As to `COC(=O)CC[C@H]1CN(S(=O)(=O)c2cccc(C(F)(F)F)c2)c2cc(/C=C/c3c(Cl)cccc3C(C)(F)F)ccc2O1` [Example 89EW, methyl (S,E)-3-(6-(2-chloro-6-(1,1-difluoroethyl)styryl)-4-((3-(trifluoromethyl)phenyl)-sulfonyl)-3,4-dihydro-2H-benzo[b][1,4]oxazin-2-yl)propanoate], the EC50 in test [1] (RORγ-LBD TR-FRET) and in test [2] (setting [4]) was less than 500 nM throughout.

What is called EC50 is the midpoint of the concentration-response curve.

The record behind these values is patent US9896441B2 (Lycera Corporation, priority 2014, dated 2018).
